Counter-ions that a name gives are not always drawn.
These compounds were tested on Aβ1-42 production in H4 cells stably transfected with APP751 containing the Swedish mutation (assay: Cellular assay for inhibition of Aβ1-42 production (H4 APP751 SWE clone 8.20)). Details: 19 h, H4 APP751 SWE clone 8.20 cells, 19 h incubation; read-out: Aβ42 cellular IC50.
Assay type: cell-based
Method: Cellular Assays for Inhibition of Aβ1-40 and Aβ1-42 Production
H4 cells stably transfected with APP751 containing the Swedish mutation (H4 APP751 SWE clone 8.20, developed at BMS) were maintained in log phase through twice weekly passage at a 1:20 split. […] Following incubation for 19 h in 5% CO2 at 37° C., plates were briefly centrifuged (1000 rpm, 5 min). A 10 μl aliquot from each well was transferred to a second assay plate (Costar 3709) for Aβ40 measurements. Antibody cocktails were freshly prepared by dilution into 40 mM Tris-HCl (pH 7.4) with 0.2% BSA and added to assay plates. For Aβ42 measurements, antibodies specific for the Aβ42 neoepitope (565, developed at BMS; conjugated to the Wallac reagent (Perkin Elmer)) and the N-terminal sequence of Aβ peptide (26D6, developed at SIBIA; conjugated to APC (Perkin Elmer)) were mixed and 20 μl of the mixture was added to each well of the incubated cell plate yielding a final concentration of 0.8 ng/well 565 and 75 ng/well 26D6. For the Aβ40 measurements, antibodies specific for the Aβ40 neoepitope (TSD, developed at BMS; conjugated to the Wallac reagent (Perkin Elmer)) and 26D6 as described above were mixed and 20 μl of the mixture was added to the 10 μl aliquots which had been removed previously from the cell plate yielding a final concentration of 1.6 ng/well TSD and 17.5 ng/well 26D6. Assay plates containing antibodies were sealed with aluminum foil and incubated overnight at 4° C. Signal was determined using a Viewlux counter (Perkin Elmer) and IC50 values determined using curve fitting in CurveMaster (Excel Fit based).

SMILES | IC50 [µM]
C[C@]12N=C(N)SC[C@H]1CCc1ccc(NC(=O)c3ncc(F)cc3F)cc12 (relative stereo) [Example 8, rel-N-((4aS,10bS)-2-Amino-10b-methyl-4a,5,6,10b-tetrahydro-4H-naphtho[1,2-d][1,3]thiazin-9-yl)-3,5-difluoropicolinamide, 2,2,2-trifluoroacetate] | 3.1
C[C@]12N=C(N)SC[C@H]1CCOc1ccc(-c3cncc4ccccc34)cc12 (relative stereo) [Example 29, rel-(4aS,11bS)-10-(isoquinolin-4-yl)-11b-methyl-4a,5,6,11b-tetrahydro-4H-benzo[2,3]oxepino[4,5-d][1,3]thiazin-2-amine, bis(2,2,2-trifluoroacetate)] | 4.6
Cn1cc(-c2ccc3c(c2)[C@@]2(C)N=C(N)SC[C@H]2CCO3)cn1 (relative stereo) [Example 23, rel-(4aS,11bS)-11b-Methyl-10-(1-methyl-1H-pyrazol-4-yl)-4a,5,6,11b-tetrahydro-4H-benzo[2,3]oxepino[4,5-d][1,3]thiazin-2-amine, bis(2,2,2-trifluoroacetate)] | 5.1
C[C@]12N=C(N)SC[C@H]1CCOc1ccc(-c3cc4cc(C#N)ccc4[nH]3)cc12 (relative stereo) [Example 28, rel-2-((4aS,11bS)-2-amino-11b-methyl-4a,5,6,11b-tetrahydro-4H-benzo[2,3]oxepino[4,5-d][1,3]thiazin-10-yl)-1H-indole-5-carbonitrile, 2,2,2-trifluoroacetate salt] | 9.7
C[C@]12N=C(N)SC[C@H]1CCc1ccc(NC(=O)c3ccc(F)cn3)cc12 (relative stereo) [Example 9, rel-N-((4aS,10bS)-2-amino-10b-methyl-4a,5,6,10b-tetrahydro-4H-naphtho[1,2-d][1,3]thiazin-9-yl)-5-fluoropicolinamide, 2,2,2-trifluoroacetate] | 2.1
COc1cccc(-c2ccc3c(c2)[C@@]2(C)N=C(N)SC[C@H]2CCC3)c1 (relative stereo) [Example 12, rel-(4aS,11bS)-10-(3-methoxyphenyl)-11b-methyl-4,4a,5,6,7,11b-hexahydrobenzo[6,7]cyclohepta[1,2-d][1,3]thiazin-2-amine, 2,2,2-trifluoroacetate] | 3.4
NC1=N[C@H]2c3cc(-c4cncnc4)ccc3CCC[C@H]2CS1 [Example 1b, (4aR,11bR)-10-Pyrimidin-5-yl-4,4a,5,6,7,11b-hexahydro-3-thia-1-aza-dibenzo[a,c]cyclohepten-2-ylamine] | 28
C[C@]12N=C(N)SC[C@H]1CCCc1ccc(-c3cncc(Cl)c3)cc12 (relative stereo) [Example 13, rel-(4aS,11bS)-10-(5-Chloropyridin-3-yl)-11b-methyl-4,4a,5,6,7,11b-hexahydrobenzo[6,7]cyclohepta[1,2-d][1,3]thiazin-2-amine, bis(2,2,2-trifluoroacetate)] | 3.1
C[C@@]12N=C(N)SC[C@@H]1CCCc1ccc(NC(=O)c3ccc(Cl)cn3)cc12 [Example 3b, 5-Chloro-pyridine-2-carboxylic acid ((4aR,11bR)-2-amino-11b-methyl-4,4a,5,6,7,11b-hexahydro-3-thia-1-aza-dibenzo[a,c]cyclohepten-10-yl)-amide] | 6.7
Cc1cc(-c2ccc3c(c2)[C@@]2(C)N=C(N)SC[C@H]2CC3)n(C)n1 (relative stereo) [Example 20, rel-(4aS,10bS)-9-(1,3-Dimethyl-1H-pyrazol-5-yl)-10b-methyl-4a,5,6,10b-tetrahydro-4H-naphtho[1,2-d][1,3]thiazin-2-amine, bis(2,2,2-trifluoroacetate)] | > 30
C[C@]12N=C(N)SC[C@H]1CCOc1ccc(-c3cn[nH]c3)cc12 (relative stereo) [Example 24, rel-(4aS,11bS)-11b-methyl-10-(1H-pyrazol-4-yl)-4a,5,6,11b-tetrahydro-4H-benzo[2,3]oxepino[4,5-d][1,3]thiazin-2-amine, bis(2,2,2-trifluoroacetate)] | 8.1
NC1=N[C@@H]2c3cc(-c4cncnc4)ccc3CCC[C@@H]2CS1 (relative stereo) [Example 1, rel-(4aS,11bS)-10-Pyrimidin-5-yl-4,4a,5,6,7,11b-hexahydro-3-thia-1-aza-dibenzo[a,c]cyclohepten-2-ylamine, bis(2,2,2-trifluoroacetate)] | 5.2
Cc1ncc(-c2ccc3c(c2)[C@]2(C)N=C(N)SC[C@@H]2CCO3)s1 [Example 26a, (4aR,11bR)-11b-Methyl-10-(2-methylthiazol-5-yl)-4a,5,6,11b-tetrahydro-4H-benzo[2,3]oxepino[4,5-d][1,3]thiazin-2-amine] | 4.5

Further lines, results first:

IC50 [µM] | SMILES
10 | C[C@@]12N=C(N)SC[C@@H]1CCOc1ccc(NC(=O)c3ccc(F)cn3)cc12 [Example 36b, N-((4aR,11bR)-2-Amino-11b-methyl-4a,5,6,11b-tetrahydro-4H-benzo[2,3]oxepino[4,5-d][1,3]thiazin-10-yl)-5-fluoropicolinamide]
0.017 | C[C@]12N=C(N)SC[C@H]1CCOc1ccc(NC(=O)c3ccc(F)cn3)cc12 [Example 36a, N-((4aS,11bS)-2-Amino-11b-methyl-4a,5,6,11b-tetrahydro-4H-benzo[2,3]oxepino[4,5-d][1,3]thiazin-10-yl)-5-fluoropicolinamide]
0.92 | C[C@@]12N=C(N)SC[C@@H]1CCCc1ccc(NC(=O)c3ncc(Cl)cc3Cl)cc12 [Example 45b, N-((4aR,11bR)-2-Amino-11b-methyl-4,4a,5,6,7,11b-hexahydrobenzo[6,7]cyclohepta[1,2-d][1,3]thiazin-10-yl)-3,5-dichloropicolinamide]
1.3 | COc1cccnc1Nc1ccc2c(c1)[C@@]1(C)N=C(N)SC[C@H]1CCO2 (relative stereo) [Example 38, rel-(4aS,11bS)—N10-(3-Methoxypyridin-2-yl)-11b-methyl-4a,5,6,11b-tetrahydro-4H-benzo[2,3]oxepino[4,5-d][1,3]thiazine-2,10-diamine, bis(2,2,2-trifluoroacetate)]
0.12 | C[C@]12N=C(N)SC[C@H]1CCCc1ccc(NC(=O)c3ccc(F)cn3)cc12 [Example 43b, N-((4aS,11bS)-2-Amino-11b-methyl-4,4a,5,6,7,11b-hexahydrobenzo[6,7]cyclohepta[1,2-d][1,3]thiazin-10-yl)-5-fluoropicolinamide]
1.5 | COc1ccnc(Nc2ccc3c(c2)[C@@]2(C)N=C(N)SC[C@H]2CCO3)n1 (relative stereo) [Example 42, rel-(4aS,11bS)—N10-(4-Methoxypyrimidin-2-yl)-11b-methyl-4a,5,6,11b-tetrahydro-4H-benzo[2,3]oxepino[4,5-d][1,3]thiazine-2,10-diamine, bis(2,2,2-trifluoroacetate)]
6.8 | C[C@@]12N=C(N)SC[C@@H]1CCCc1ccc(NC(=O)c3ccc(C#N)cn3)cc12 [Example 44a, N-((4aR,11bR)-2-Amino-11b-methyl-4,4a,5,6,7,11b-hexahydrobenzo[6,7]cyclohepta[1,2-d][1,3]thiazin-10-yl)-5-cyanopicolinamide]
0.085 | C[C@]12N=C(N)SC[C@H]1CCOc1ccc(NC(=O)c3ccc(F)cn3)cc12 (relative stereo) [Example 36, rel-N-((4aS,11bS)-2-Amino-11b-methyl-4a,5,6,11b-tetrahydro-4H-benzo[2,3]oxepino[4,5-d][1,3]thiazin-10-yl)-5-fluoropicolinamide, 2,2,2-trifluoroacetate salt]

Same assay, conditions: H4 APP751 SWE clone 8.20 cells, 19 h incubation; read-out: Aβ42 cellular IC50

IC50 [µM] | SMILES
0.0062 | C[C@]12N=C(N)SC[C@H]1CCOc1ccc(NC(=O)c3ccc(C#N)cn3)cc12 [Example 35b, N-((4aS,11bS)-2-amino-11b-methyl-4a,5,6,11b-tetrahydro-4H-benzo[2,3]oxepino[4,5-d][1,3]thiazin-10-yl)-5-cyanopicolinamide]
